Like-named read-outs stand apart in the source and are kept apart here.
Tests used:
WT STING = WT STING (Homo sapiens, UniProt Q86WV6, H232R); experiment: 293T WT STING standard reporter assay; type: cell-based; set-up: host or cells: 293T (ATCC CRL-3216), stably transfected, with 4xISRE firefly luciferase reporter; details: 293T wtSTING-FL cells, ISRE firefly luciferase; no digitonin; 7 hours with compounds; 8-point curve
Description: Two complementary oligonucleotides of the sequence […] […] […] […] […] The oligonucleotides were mixed in equal molar amounts, hybridized, and cleaved by restriction endonucleases HindIII (cat. #. R0104S, NEB, Ipswich, USA) and BglII (cat. #R0144S, NEB, Ipswich, USA). Ultimately, they were ligated into plasmid pGL4.27 (cat. #E6651, Promega, Madison, USA) linearized with the same enzymes. As result the sequence with four ISRE sites was placed upstream of the minimum promoter of firefly luciferase reporter gene.
After 5 minutes incubation at room temperature (RT), 250 μL of the mixture was added dropwise to the cells in one well. Cells were incubated 36 hours at 37° C. with 5% CO2, and then detached with 0.05% Trypsin and 0.22 g/L EDTA (both cat. #L0941, Biowest, Riverside, USA).
Transfected cells were seeded onto poly-D-lysine coated six well plates at density 50,000 cells per 1 cm^2 in DMEM medium with high glucose containing 10% heat inactivated FBS, 30 μg/mL blasticidin (cat. #ant-b1-05, InvivoGen, San Diego, USA), 0.06 mg/ml Penicillin G and 0.1 mg/ml Streptomycin Sulfate (both cat. #. L0018, Biowest, Riverside, USA). The medium was replenished every 3-4 days until visible colonies of cells resistant to blasticidin were formed.
Blasticidin resistant cells stably expressing WT STING were further transfected with […] plasmid following the same procedure as described above. […] Homogeneous culture of stably double transfected cells was prepared by limiting dilution of cells in 96 well plates and wells with cells were selected that originated from a single cell.
The medium was removed next day and three-fold serial dilutions of compounds in 100 μl medium were added to the cells. The plates with cells were incubated for 7 hours at 37° C. with 5% CO2. After 50 μl of the medium was removed, 30 μl of ONE-Glo™ Luciferase Assay System reagent (cat. #E6120, Promega, Madison, USA) was added to each well and luminescence was read on Synergy H1 (Biotek, Winooski, USA).

[1] = test system: peripheral blood mononuclear cells (PBMC); experiment: Peripheral blood mononuclear cell (PBMC) assay; type: cell-based; details: 1 h with compounds, washed, 15 hour incubation, average of one to four donors
Procedure: Selected compounds were tested in an in vitro peripheral blood mononuclear cell (PBMC) assay. […] Serially diluted tested compounds were added to wells in 50 μl of cultivation medium and cell were incubated with compounds for 1 h at 37° C. with 5% CO2. Plates with cells were then spun 500 g for 5 minutes and medium was removed. Cells were washed twice with the cell culture medium by the use of centrifugation and gently resuspended in 100 μl medium without compounds. After 15 hour incubation at 37° C. with 5% CO2, the cell culture medium was collected and the levels of interferon-alpha (INF-α), interferon-gamma (INF-γ) and tumor necrosis factor-alpha (TNF-α) were determined with ProcartaPlex Assays (ThermoFisher, Waltham, USA) and MAGPIX System (Merck KGaA, Darmstadt, Germany). […] Values reported are an average of runs from one to four donors.

[2] = PBMC, interferon-alpha level, read-out: PBMC EC50 (μM) IFN-α
[3] = PBMC, interferon-gamma level, read-out: PBMC EC50 (μM) IFN-γ
[4] = PBMC, tumor necrosis factor-alpha level, read-out: PBMC EC50 (μM) TNF-α
[5] = interferon-alpha level, read-out: PBMC EC50 (μM) IFN-α
[6] = interferon-gamma level, read-out: PBMC EC50 (μM) IFN-γ
[7] = tumor necrosis factor-alpha level, read-out: PBMC EC50 (μM) TNF-α

Chain of WT STING (Q86WV6 whole entry H232R): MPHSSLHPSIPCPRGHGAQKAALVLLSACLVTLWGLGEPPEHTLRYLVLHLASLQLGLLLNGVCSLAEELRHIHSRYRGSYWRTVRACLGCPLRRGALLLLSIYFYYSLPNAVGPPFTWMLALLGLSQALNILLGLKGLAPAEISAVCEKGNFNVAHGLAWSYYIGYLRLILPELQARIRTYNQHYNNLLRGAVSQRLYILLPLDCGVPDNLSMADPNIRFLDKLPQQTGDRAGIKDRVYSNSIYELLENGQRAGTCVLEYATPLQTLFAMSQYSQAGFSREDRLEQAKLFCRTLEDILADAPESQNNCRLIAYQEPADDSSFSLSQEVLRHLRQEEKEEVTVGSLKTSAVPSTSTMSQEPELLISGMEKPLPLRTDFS

Molecule	EC50 (WT STING) [nM]	EC50 [1, 2] [µM]	EC50 [1, 3] [µM]	EC50 [1, 4] [µM]	EC50 [1, 5] [µM]	EC50 [1, 6] [µM]	EC50 [1, 7] [µM]
CCC(C)(C)C(=O)OCOP1(=O)OC[C@H]2O[C@@H](n3cnc4c(N)ncnc43)[C@H](F)[C@@H]2OP(=O)(OCOC(=O)C(C)(C)CC)OC[C@H]2C[C@@H](n3cnc4c(N)ncnc43)[C@H](F)[C@@H]2O1 (single isomer, unassigned) [Compound 144a]	20	–	–	–	–	–	–
CC(C)OC(=O)OCOP1(=O)OC[C@H]2O[C@@H](n3cnc4c(N)ncnc43)C(F)C2OP(=O)(OCOC(=O)OC(C)C)OC[C@H]2C[C@@H](n3cnc4c(N)ncnc43)C(F)C2O1 (stereo partly drawn) [Compound 143b, {[(1R,6R,8R,9R,10R,15R,17R,18S)-8,17-bis(6-amino-9H-purin-9-yl)-9,18-difluoro-3,12-dioxo-3-({[(propan-2-yloxy)carbonyl]oxy}methoxy)-2,4,7,11,13-pentaoxa-3λ^5,12λ^5-diphosphatricyclo[13.3.0.0^6,10]octadecan-12-yl]oxy}methyl propan-2-yl carbonate]	5	0.3	0.15	0.3	–	–	–
CC(C)OC(=O)OCOP1(=O)OC[C@H]2O[C@@H](n3cnc4c(N)ncnc43)[C@H](F)[C@@H]2OP(=O)(OCOC(=O)OC(C)C)OC[C@H]2C[C@@H](n3cnc4c(N)ncnc43)[C@H](F)[C@@H]2O1 (single isomer, unassigned) [Compound 143a]	100	–	–	–	–	–	–
CC1(C(=O)OCOP2(=O)OC[C@H]3O[C@@H](n4cnc5c(N)ncnc54)C(F)C3OP(=O)(OCOC(=O)C3(C)CCCCC3)OC[C@H]3C[C@@H](n4cnc5c(N)ncnc54)C(F)C3O2)CCCCC1 (stereo partly shown) [Compound 145c]	6	0.04	0.01	0.02	–	–	–
CC(C)(C)C(=O)OCOP1(=O)OC[C@H]2O[C@@H](n3cnc4c(N)ncnc43)C(F)C2OP(=O)(OCOC(=O)C(C)(C)C)OC[C@H]2C[C@@H](n3cnc4c(N)ncnc43)CC2O1 (single isomer, unassigned) [Compound 137a]	200	–	–	–	–	–	–
CC(C)(C)C(=O)OCOP1(=O)OC[C@H]2C[C@@H](n3cnc4c(N)ncnc43)C(F)C2OP(=O)(OCOC(=O)C(C)(C)C)OC[C@H]2C[C@@H](n3cnc4c(N)ncnc43)C(F)C2O1 (single isomer, unassigned) [Compound 138a]	70	–	1.5	1.9	3.2	–	–
CC(C)(C)C(=O)OCOP1(=O)OC[C@H]2O[C@@H](n3cnc4c(N)ncnc43)C(F)C2OP(=O)(OCOC(=O)C(C)(C)C)OC[C@H]2C[C@@H](n3cnc4c(N)ncnc43)CC2O1 (single isomer, unassigned) [Compound 137b]	90	–	–	–	–	–	–
CCCCCCCC(=O)OCOP1(=O)OC[C@H]2O[C@@H](n3cnc4c(N)ncnc43)[C@H](F)[C@@H]2OP(=O)(OCOC(=O)CCCCCCC)OC[C@H]2C[C@@H](n3cnc4c(N)ncnc43)[C@H](F)[C@@H]2O1 (single isomer, unassigned) [Compound 146b]	0.3	–	–	–	0.02	0.01	0.01
(((2R,3R,3aR,7aR,9R,10S,10aR,14aR)-2,9-bis(6-amino-9H-purin-9-yl)-3,10-difluoro-12-hydroxy-5,12-dioxidodecahydro-2H-cyclopenta[d]furo[3,2-j][1,3,7,9]tetraoxa[2,8]diphosphacyclododecin-5-yl)oxy)methyl pivalate [Compound 135a]	300	–	–	–	–	–	–
CCC(C)(C)C(=O)OCOP1(=O)OC[C@H]2O[C@@H](n3cnc4c(N)ncnc43)[C@H](F)[C@@H]2OP(=O)(OCOC(=O)C(C)(C)CC)OC[C@H]2C[C@@H](n3cnc4c(N)ncnc43)[C@H](F)[C@@H]2O1 (single isomer, unassigned) [Compound 144c]	1	0.004	0.003	0.002	–	–	–
CCCCCCCC(=O)OCOP1(=O)OC[C@H]2O[C@@H](n3cnc4c(N)ncnc43)[C@H](F)[C@@H]2OP(=O)(OCOC(=O)CCCCCCC)OC[C@H]2C[C@@H](n3cnc4c(N)ncnc43)[C@H](F)[C@@H]2O1 (single isomer, unassigned) [Compound 146a]	0.1	0.04	–	–	–	–	–
CC(C)(C)C(=O)OCOP1(=O)OC[C@H]2C[C@@H](n3cnc4c(N)ncnc43)C(F)C2OP(=O)(OCOC(=O)C(C)(C)C)OC[C@H]2C[C@@H](n3cnc4c(N)ncnc43)C(F)C2O1 (single isomer, unassigned) [Compound 138b]	20	–	–	–	1	2.6	1.3
CC(C)(C)C(=O)OCOP1(=O)OC[C@H]2C[C@@H](n3cnc4c(N)ncnc43)C(F)[C@H]2OP(=O)(OCOC(=O)C(C)(C)C)OC[C@H]2O[C@@H](n3cnc4c(N)ncnc43)[C@@H](F)C2O1 (single isomer, unassigned) [Compound 136c]	50	–	–	–	–	–	–
CC(C)(C)C(=O)OCOP1(=O)OC[C@H]2C[C@@H](n3cnc4c(N)ncnc43)C(F)[C@H]2OP(=O)(OCOC(=O)C(C)(C)C)OC[C@H]2O[C@@H](n3cnc4c(N)ncnc43)[C@@H](F)C2O1 (single isomer, unassigned) [Compound 136d]	10	0.9	2.4	0.8	–	–	–
CCCCCCCC(=O)OCOP1(=O)OC[C@H]2O[C@@H](n3cnc4c(N)ncnc43)[C@H](F)[C@@H]2OP(=O)(OCOC(=O)CCCCCCC)OC[C@H]2C[C@@H](n3cnc4c(N)ncnc43)[C@H](F)[C@@H]2O1 (single isomer, unassigned) [Compound 146c]	1	–	–	–	0.02	0.02	0.01
CC(C)(C)C(=O)OCOP1(=O)OC[C@H]2O[C@@H](n3cnc4c(N)ncnc43)CC2OP(=O)(OCOC(=O)C(C)(C)C)OC[C@H]2C[C@@H](n3cnc4c(N)ncnc43)C(F)C2O1 (stereo partly drawn) [Compound 139a, (((2R,3aS,7aR,9R,10S,10aR,14aR)-2,9-bis(6-amino-9H-purin-9-yl)-10-fluoro-5,12-dioxidodecahydro-2H-cyclopenta[d]furo[3,2-j][1,3,7,9]tetraoxa[2,8]di-phosphacyclododecine-5,12-diyl)bis(oxy))bis(methylene) bis(2,2-dimethylpropanoate)]	3	–	0.1	0.1	–	–	–
CC1(C(=O)OCOP2(=O)OC[C@H]3O[C@@H](n4cnc5c(N)ncnc54)[C@H](F)[C@@H]3OP(=O)(OCOC(=O)C3(C)CCCCC3)OC[C@H]3C[C@@H](n4cnc5c(N)ncnc54)[C@H](F)[C@@H]3O2)CCCCC1 (single isomer, unassigned) [Compound 145b]	1	0.007	0.002	0.006	–	–	–
CC(C)(C)C(=O)OCOP1(=O)OC[C@H]2C[C@@H](n3cnc4c(N)ncnc43)C(F)[C@H]2OP(=O)(OCOC(=O)C(C)(C)C)OC[C@H]2O[C@@H](n3cnc4c(N)ncnc43)[C@@H](F)C2O1 (single isomer, unassigned) [Compound 136b]	60	–	–	–	–	–	–
CC1(C(=O)OCOP2(=O)OC[C@H]3O[C@@H](n4cnc5c(N)ncnc54)[C@H](F)[C@@H]3OP(=O)(OCOC(=O)C3(C)CCCCC3)OC[C@H]3C[C@@H](n4cnc5c(N)ncnc54)[C@H](F)[C@@H]3O2)CCCCC1 (single isomer, unassigned) [Compound 145a]	120	–	–	–	–	–	–
